Converted amounts (≈) assume the structure as drawn. “And” between values parts separate entries of the source, which are not always exact repeats. Equal entries are not always repeated. Where two headings read alike, the source gives them in different places.
Assays:
[1] = Cytotoxicity in mock-infected MT-4 cells, MTT method; settings: human
Procedure: (§1) The biological results were determined as EC50 (anti-HIV potency), CC50 (cytotoxicity) and SI (selectivity index, the ratio of CC50/EC50). […]
(§2) compounds were made directly in flat-bottomed 96-well microtiter trays by adding 100 μL medium to the 25 μL stock solution and transferring 25 μL of this solution to another well that contained 100 μL medium using a Biomek 3000 robot (Beckman Instruments, Fullerton, CA). Untreated control HIV- and mock-infected cell samples were included for each sample. HIV-1 WT strain (IIIB), HIV-1 drug-resistant strains including […]
(§3) (50% cell culture infectious dose) or culture medium was added to either the infected or mock-infected wells of the microtiter tray. Mock-infected cells were used to evaluate the effect of test compounds on uninfected cells in order to assess its cytotoxicity.
(§4) Exponentially growing MT-4 cells were centrifuged for 5 min at 1000 rpm and the supernatant was discarded.
(§5) 50 μL volumes were transferred to the microtiter tray wells. Five days after infection, the viability of mock- and HIV-infected cells was examined spectrophotometrically by […]
(§6) concentration of the test compound that reduced the viability of the mock-infected MT- […]

[2] = test system: HIV-1 F227L/V106A; assay: Anti-HIV-1 activity against F227L/V106A mutant strain, MTT method in MT-4 cells; type: cell-based; settings: for EC50: Human immunodeficiency virus 1, MT4, read-out: EC50 F227L/V106A
From the text: (§7) According to the anti-HIV-1(WT) results, the promising compounds 18a(1–5), 18b(1–5) and 18c1 were chosen to further evaluate their inhibitory potency against the prevalent HIV-1 mutations, including L100I, K103N, Y181C, Y188L, E138K, and F227L/V106A. […]. page 20:
(§8) or mock-infected wells of the microtiter tray. Mock-infected cells were used to evaluate
(§9) supernatant was discarded.
(§10) Five days after infection,
(§11) 4 cells by 50%. […]

[3] = test system: HIV-1 WT (IIIB); assay: microbe, parasite or virus in culture; type: cell-based; settings: for EC50: Human immunodeficiency virus 1, IIIB; for SI IIIB: selectivity index, ratio of CC50/EC50
Procedure: as §1, §2, §3, §4, §5, §6

[4] = test system: HIV-1 K103N/Y181C double mutant (RES056); assay: microbe, parasite or virus in culture; type: cell-based; settings: for EC50: Human immunodeficiency virus 1, MT4, read-out: EC50 RES056; for SI RES056: selectivity index, ratio of CC50/EC50
Procedure: as §1, §2, §3, §4, §5, §6

[5] = test system: HIV-1 L100I; assay: microbe, parasite or virus in culture; type: cell-based; settings: Human immunodeficiency virus 1, MT4, read-out: EC50 L100I
Procedure: as §2, §3, §4, §5, §6

[6] = test system: HIV-1 E138K; assay: microbe, parasite or virus in culture; type: cell-based; settings: Human immunodeficiency virus 1, MT4, read-out: EC50 E138K
Procedure: as §2, §3, §4, §5, §6

[7] = test system: HIV-1 K103N; assay: Anti-HIV-1 activity against K103N mutant strain, MTT method in MT-4 cells; type: cell-based; settings: Human immunodeficiency virus 1, MT4, read-out: EC50 K103N
From the text: as §7, §8, §9, §10, §11

[8] = test system: HIV-1 Y188L; assay: Anti-HIV-1 activity against Y188L mutant strain, MTT method in MT-4 cells; type: cell-based; settings: Human immunodeficiency virus 1, MT4, read-out: EC50 Y188L
From the text: as §7, §8, §9, §10, §11

[9] = test system: HIV-1 Y181C; assay: Anti-HIV-1 activity against Y181C mutant strain, MTT method in MT-4 cells; type: cell-based; settings: for EC50: Human immunodeficiency virus 1, MT4, read-out: EC50 Y181C, MT-4 cells, MTT method, mean ± SD, n ≥ 4
From the text: as §8, §9, §10, §11

[10] = target: T1, WT HIV-1 RT (Human immunodeficiency virus type 1 group M subtype B, UniProt P04585); assay: biochemical; settings: read-out: IC50 against WT HIV-1 RT; inhibition of biotin deoxyuridine triphosphate incorporation into HIV-1 IIIB RT by 50%, mean ± SD, n = 2
T1 construct: purchased Roche
Procedure: Section 4. HIV-1 RT inhibition assays
A reverse transcriptase (RT) assay kit produced by Roche was selected for the RT inhibition assay.3 All the reagents for performing the RT reaction came with the kit and the ELSIA procedures for RT inhibition assay was carried out following the description in the kit protocol. Briefly, the reaction mixture containing template/primer complex, viral nucleotides (dNTPs) and RT in the incubation buffer with or without inhibitors was incubated for 1 h at 37 °C . After that, the reaction mixture was transferred to a streptavidine coated microtiter plate and incubated for another 1 h at 37 °C to make sure retranscriptional cDNA chain that consisted biotin labeled dNTPs bound to streptavidine. Then unbound dNTPs were removed using washing buffer and anti-DIG-POD working solution was added. After incubation for 1 h at 37 °C , the DIG-labeled dNTPs incorporated in cDNA were bound to the anti-DIG-POD antibody. The unbound

[11] = in vivo; settings: male, Sprague-Dawley, rat, plasma
Procedure: (§15) SpragueDawley (SD) rats (180−200 g) were randomly divided into two groups to
(§16) receive oral administration (10 mg/kg) or intravenous (2 mg/kg). A solution of
(§17) compound 18b1 was prepared by dissolving in a mixture of polyethylene glycol (PEG)
(§18) 400/normal saline (70/30, V/V) before the experiment. Blood samples (200 μL of blood
(§19) each times) of the intravenous group were collected from the sinus jugular into
(§20) h after dosing, and blood samples (200 μL of blood each times) of the oral
(§21) used to determine the concentration of 18b1 in plasma. Briefly, 50 μL of plasma was
(§22) and a 20 μL aliquot was injected for LCMS/MS analysis. Standard curves for 18b1 in
(§23) blood were generated by the addition of S10 various concentrations of 18b1 together

[12] = target: CYP2D6 (Homo sapiens, UniProt P10635); assay: in vitro; settings: human, microsomes, IC50 CYP2D6
Procedure: Fig. S3 Decomposition of the binding free energy (per-residue) into contributions from electrostatic energy, vdw energy, polar solvation energy, and non-polar solvation energy. a K103N-18b1. b […]
(§12) Section 7. Water solubility measurements
Water solubility was measured in phosphate buffer at pH 7.0 by using an HPLC-UV method.17 Compounds were initially dissolved in DMSO at 10 mg/mL 10 μL of this stock solution was spiked into purified water (1 mL) with the final DMSO concentration being 1%. The mixture was ultrasonic for 2 h at room temperature and restored at room temperature overnight. The saturated solution was filtrated through a filter membrane (pore size = 0.22 μm) and transferred to other Eppendorf tubes for analysis by HPLC-UV. The sample was performed in triplicate. For quantification, a model LC-20AT HPLC-UV (SHIMADZU) system was used with an Inertsil ® ODS-SP-C18 column (150 mm × 4.6 mm, 5 μm) and MeOH/water as eluant. The flow rate was 1.0 mL/min, and injection volume was 20 μL. Aqueous concentration was determined by comparison of the peak area of the saturated solution with a standard curve plotted peak area versus known concentrations, which were prepared by solutions in MeOH at 200, […]
(§13) Section 8. CYP enzyme inhibition assay […]
Section 9. Pharmacokinetics studies […]
approval from the Animal Ethical and Welfare Committee (AEWC). Ten male […]
Blood samples (200 μL of blood
Briefly, 50 μL of plasma was […]
tube, which was centrifuged at 3000g for 10 min. The supernatant layer was collected […]
Standard curves for 18b1 in […]
with an internal standard to blank plasma. Then all samples were quantified with an […]

[13] = target: CYP2C19 (Homo sapiens, UniProt P33261); assay: in vitro; settings: human, microsomes
From the text: as §13
(§14) Agilent 1200 LC/MSD (Agilent, USA).

[14] = target: CYP2C9 (Homo sapiens, UniProt P11712); assay: in vitro; settings: human, microsomes
From the text: as §13, §14

[15] = physchem; type: physicochemical; settings: pH 7, aqueous buffer, kinetic from dmso stock
Procedure: as §12
temperature overnight. The saturated solution was filtrated through a filter membrane
UV. The sample was performed in triplicate. For quantification, a model LC-20AT
The flow rate was 1.0 mL/min,
and injection volume was 20 μL. Aqueous concentration was determined by
Section 8. CYP enzyme inhibition assay

[16] = In vivo pharmacokinetics in Sprague-Dawley rats; settings: SD rat, 2.0 mg/kg i.v., mean ± SD, n = 3
Procedure: as §15, §16, §17, §18, §19, §20, §21, §22, §23

[17] = MT4, MT-4 cells, MTT method, mean ± SD, n ≥ 4, read-out: EC50 IIIB

CYP2C19, sequence (P33261 whole entry): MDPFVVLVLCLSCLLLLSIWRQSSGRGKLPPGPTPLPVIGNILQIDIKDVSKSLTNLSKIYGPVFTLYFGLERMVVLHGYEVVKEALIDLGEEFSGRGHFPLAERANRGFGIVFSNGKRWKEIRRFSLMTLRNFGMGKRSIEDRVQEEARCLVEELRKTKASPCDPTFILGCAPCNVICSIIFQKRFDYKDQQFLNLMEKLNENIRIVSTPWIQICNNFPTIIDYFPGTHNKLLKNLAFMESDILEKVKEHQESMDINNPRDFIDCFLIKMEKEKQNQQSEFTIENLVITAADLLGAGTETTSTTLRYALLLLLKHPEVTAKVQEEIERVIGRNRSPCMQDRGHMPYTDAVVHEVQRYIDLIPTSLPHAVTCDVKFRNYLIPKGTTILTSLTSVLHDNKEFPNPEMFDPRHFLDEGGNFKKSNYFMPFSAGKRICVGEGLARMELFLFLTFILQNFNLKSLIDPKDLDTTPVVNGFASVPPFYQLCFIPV
CYP2C9, sequence (P11712 whole entry): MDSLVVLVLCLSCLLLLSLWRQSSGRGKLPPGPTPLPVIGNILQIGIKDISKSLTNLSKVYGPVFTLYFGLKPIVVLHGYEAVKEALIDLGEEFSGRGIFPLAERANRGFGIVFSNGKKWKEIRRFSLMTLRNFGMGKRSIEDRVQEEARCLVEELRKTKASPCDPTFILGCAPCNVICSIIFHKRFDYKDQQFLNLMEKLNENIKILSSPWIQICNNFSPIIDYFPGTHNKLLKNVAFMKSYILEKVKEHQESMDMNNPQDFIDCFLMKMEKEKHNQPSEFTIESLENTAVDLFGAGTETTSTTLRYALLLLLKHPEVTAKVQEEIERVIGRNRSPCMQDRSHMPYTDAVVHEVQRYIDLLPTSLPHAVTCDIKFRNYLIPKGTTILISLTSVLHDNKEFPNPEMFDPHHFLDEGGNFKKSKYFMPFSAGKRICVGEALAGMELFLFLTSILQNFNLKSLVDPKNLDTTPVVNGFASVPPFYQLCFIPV
CYP2D6, sequence (P10635 whole entry): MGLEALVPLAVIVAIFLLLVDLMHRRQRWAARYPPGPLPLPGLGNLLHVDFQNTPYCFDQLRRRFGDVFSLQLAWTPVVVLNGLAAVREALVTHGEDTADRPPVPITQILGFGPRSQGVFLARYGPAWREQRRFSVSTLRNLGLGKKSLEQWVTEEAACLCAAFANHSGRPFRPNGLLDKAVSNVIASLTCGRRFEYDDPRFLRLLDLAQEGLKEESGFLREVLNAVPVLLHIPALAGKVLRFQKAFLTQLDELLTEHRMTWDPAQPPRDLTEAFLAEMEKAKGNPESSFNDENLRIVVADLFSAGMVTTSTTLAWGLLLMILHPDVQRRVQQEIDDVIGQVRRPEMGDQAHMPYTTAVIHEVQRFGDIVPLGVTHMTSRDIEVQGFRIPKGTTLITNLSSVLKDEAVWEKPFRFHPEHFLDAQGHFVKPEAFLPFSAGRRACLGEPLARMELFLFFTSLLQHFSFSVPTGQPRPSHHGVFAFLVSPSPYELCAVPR

| SMILES | CC50 at 5 days [1] [nM] | EC50 [2] [nM] | EC50 [3, 17] [nM] | EC50 [4] [nM] | EC50 [5] [nM] | EC50 [6] [nM] | EC50 [7] [nM] | EC50 [8] [nM] | EC50 [9] [nM] | EC50 ([3]; MT4, read-out: EC50 IIIB) [nM] | SI IIIB [3] | SI RES056 [4] | other results |
| --- | --- | --- | --- | --- | --- | --- | --- | --- | --- | --- | --- | --- | --- |
| O=C1Nc2ccc(Cl)cc2[C@@](C#CC2CC2)(C(F)(F)F)O1 [EFV, efavirenz] | > 6330 | 260 ± 100 | 3.7 ± 0.67 | 300 ± 190 | 53 ± 28 | 6.5 ± 1.7 | 120 ± 24 | 250 ± 56 | – | – | – | – | – |
| Cc1ccnc2c1NC(=O)c1cccnc1N2C1CC1 [NVP, Nevirapine] | > 15000 | > 15000 | 190 ± 76 | > 15000 | 2230 ± 980 | – | 6040 ± 2660 | > 15000 | 7400 ± 1780 | – | – | – | – |
| Cc1cn([C@H]2C[C@H](N=[N+]=[N-])[C@@H](CO)O2)c(=O)[nH]c1=O [AZT, zidovudine] | > 7480 | – | – | 37 ± 11 | – | – | – | – | – | 32 ± 9.6 | >234 | >200 | – |
| Cc1cc(/C=C/C#N)cc(C)c1Oc1ccnc(Nc2ccc(N3CCN(S(C)(=O)=O)CC3)c(C#N)c2)n1 [Compound 18b1] | 10200 ± 1820 | 9.9 ± 1.6 | – | 93 ± 19 | 3.7 ± 0.62 | 6.4 ± 0.54 | 1.7 ± 0.32 | 740 ± 210 | 6.4 ± 0.67 | 1.4 ± 0.19 | 7171 | 110 | fold potency enhancement over ETR ([9]; Y181C strain, ratio of EC50): 2.8 fold; fold more potent than lead compound BH-11c ([2]; F227L/V106A strain, ratio of EC50): ~ 20 fold; IC50 [10]: 93 ± 17 nM; AUC(0-inf) ([11]; iv, 2 mg/kg): 792 ± 74.9 ng·h/mL; AUC(0-t) ([11]; iv, 2 mg/kg): 785 ± 73.9 ng·h/mL; Cmax ([11]; iv, 2 mg/kg): 1230 ± 96.1 ng/mL; Tmax ([11]; iv, 2 mg/kg): 0.08 h; clearance ([11]; iv, 2 mg/kg): 42.3 mL/min/kg; half-life ([11]; iv, 2 mg/kg): 2.42 ± 0.34 h; bioavailability ([11]; oral, 10 mg/kg): 1.34%; AUC(0-inf) ([11]; po, 10 mg/kg): 53.2 ± 8.32 ng·h/mL; AUC(0-t) ([11]; po, 10 mg/kg): 45.1 ± 12.9 ng·h/mL; Cmax ([11]; po, 10 mg/kg): 16.1 ± 6.59 ng/mL; Tmax ([11]; po, 10 mg/kg): 3.5 ± 2.78 h; half-life ([11]; po, 10 mg/kg): 3.05 ± 1.44 h; IC50 at 10 min [12]: > 10000 nM; IC50 at 10 min [13]: 8000 nM; IC50 at 10 min [14]: 5300 nM; solubility [15]: 13.5 ± 0.49 µg/mL (≈ 25.4 µM); V [16]: 8.81 L/kg and 8.81 ± 0.72 L/kg |
| CCS(=O)(=O)N1CCN(c2ccc(Nc3nccc(Oc4c(C)cc(C#N)cc4C)n3)cc2C#N)CC1 [Compound 17b2] | > 241000 | – | 6.6 ± 1.7 | > 241000 | – | – | – | – | – | – | >36,585 | – | – |

From article PMC10148624, “Discovery of diarylpyrimidine derivatives bearing piperazine sulfonyl as potent HIV-1 nonnucleoside reverse transcriptase inhibitors” (Communications Chemistry, 2023)
